Assay results taken from paper PMC13411385, “Methyl on the Bridge: 2‐Methyl Propellane as Precursor for 1,3‐Substituted 2‐Methylated Bicyclo[1.1.1]Pentanes” (Chemistry (Weinheim an Der Bergstrasse, Germany), 2025).

Assays:
[1] = design: method as in PMID 31894985; details: between 2,2‐difluorobutanol and 2,2‐difluoropentanol; cited from earlier work
[2] = octanol‐water partition coefficient (logP) by 19F NMR‐based protocol; assay type: physicochemical; details: for logP: measured octanol‐water partition coefficient, 19F NMR‐based protocol; for increase in lipophilicity on addition of a methyl group: methylated compound vs its nonmethylated analogue (46a vs 46b; 47a vs 47b)
Excerpt: The effect of the added bridge‐methyl group on physicochemical properties was investigated.
Figure 2 Comparison of measured octanol‐water partition coefficients between phenyl, tolyl, BCP, and 2‐MeBCP.

Row | SMILES | logP [2] | increase in lipophilicity on addition of a methyl group [2] [logP units] | ΔlogP [1] [logP units]
1 | CCCC(F)(F)CO [2,2‐difluoropentanol] | – | – | 0.58
2 | CC1C2CC1(C(F)(F)CO)C2 (stereo not shown) [46a, 2,2‐difluoro‐2‐(2‐methylbicyclo[1.1.1]pentan‐1‐yl)ethan‐1‐ol] | 2.11 | 0.54 | –

Further lines, with some results ahead:

Row | logP [2] | increase in lipophilicity on addition of a methyl group [2] [logP units] | SMILES | ΔlogP [1] [logP units]
3 | 1.57 | – | OCC(F)(F)C12CC(C1)C2 [46b, 2‐(bicyclo[1.1.1]pentan‐1‐yl)‐2,2‐difluoroethan‐1‐ol] | –
4 | 2.03 | 0.46 | Cc1ccccc1C(F)(F)CO [47a, 2,2‐difluoro‐2‐(o‐tolyl)ethan‐1‐ol] | –
5 | 1.57 | – | OCC(F)(F)c1ccccc1 [47b, 2,2‐difluoro‐2‐phenylethan‐1‐ol] | –
